Measured values published in ChEMBL document CHEMBL1121381, “Beta-adrenergic blocking agents. 19. 1-Phenyl-2-[[(substituted-amido)alkyl]amino]ethanols” (1980).

Experiments:
[1] = molecular target: Adrenergic receptor beta (Rattus norvegicus) (UniProt P18090+P10608+P26255); assay: In vivo beta-adrenoceptor blocking potency measured by blockade of the isoproterenol tachycardia response in rat; type: functional, organism-based
[2] = species on record: Felis catus; assay: Percentage inhibition of depressor response in cat was determined; type: functional; set-up: concentration or dose not given beside the values

Structure (SMILES) | ED50 [1] | Inhibition [2]
O=C(NCCNCC(O)c1ccccc1)C1CCCC1 (stereo unspecified) | 0.42 mg/kg | 8%
CC(C)(CNC(=O)Cc1ccccc1)NCC(O)c1ccccc1.O=C(O)/C=C/C(=O)O (stereo unspecified) | 0.1 mg/kg | 28%
O=C(NCCNCC(O)c1ccccc1)c1ccc(O)cc1 (stereo unspecified) | 9 mg/kg | 10%
CC(C)C(=O)NCCNCC(O)c1ccc(NS(C)(=O)=O)cc1 (stereo unspecified) | 5.2 mg/kg | 
NC(=O)c1ccccc1OCC(=O)NCCNCC(O)c1ccccc1 (stereo unspecified) | 5.2 mg/kg | 
CC(C)C(=O)NCC(C)(C)NCC(O)c1ccccc1 (stereo unspecified) | 0.27 mg/kg | 9%
CC(C)NCC(O)c1ccc(NS(C)(=O)=O)cc1 (stereo unspecified) [SOTALOL] |  | 85%
CC(C)C(=O)NCCNCC(O)c1ccc(Cl)cc1Cl (stereo unspecified) | 0.75 mg/kg | 
CC(CNCC(O)c1ccccc1)NC(=O)Cc1ccccc1 (stereo unspecified) | 8 mg/kg | 
CC(=O)c1ccc(OCC(=O)NCCNCC(O)c2ccccc2)cc1 (stereo unspecified) | 0.6 mg/kg | 
CC(O)c1ccc(OCC(=O)NCCNCC(O)c2ccccc2)cc1 (stereo unspecified) | 1.6 mg/kg | 
CCOC(=O)NCCNCC(O)c1ccccc1 (stereo unspecified) | 2.8 mg/kg | 
CC(CNC(=O)C1CCCCC1)NCC(O)c1ccccc1 (stereo unspecified) | 0.11 mg/kg | 19%
CC(C)C(=O)NCCNCC(O)c1ccccc1 (stereo unspecified) | 0.7 mg/kg | 27%
CCC(C)NCC(O)c1ccc2c(c1)CCCC2.Cl (stereo unspecified) |  | 47%
CCCCCC(=O)NCCNCC(O)c1ccccc1 (stereo unspecified) | 1.4 mg/kg | 8%
CC(C)C(=O)NCCNCC(O)c1ccc(N)cc1 (stereo unspecified) | 0.6 mg/kg | 69%
O=C(NCCNCC(O)c1ccccc1)C(F)(F)F (stereo unspecified) | 0.1 mg/kg | 
CCCS(=O)(=O)NCCNCC(O)c1ccccc1 (stereo unspecified) | 0.5 mg/kg | 0%
CC(C)C(=O)NCCNCC(O)c1ccc([N+](=O)[O-])cc1 (stereo unspecified) | 10 mg/kg | 0%
CC(CNC(=O)Cc1ccccc1)NCC(O)c1ccccc1 (stereo unspecified) | 0.1 mg/kg | 36%
CC(=O)NCCNCC(O)c1ccccc1 (stereo unspecified) | 0.08 mg/kg | 50%
CC(=O)Nc1ccc(OCC(O)CNC(C)C)cc1 (stereo unspecified) [PRACTOLOL] |  | 8%
COc1ccc(C(O)CNCCNC(=O)C(C)C)cc1 (stereo unspecified) | 0.3 mg/kg | 0%
COCC(=O)NCCNCC(O)c1ccccc1 (stereo unspecified) | 0.4 mg/kg | 44%
CCCC(=O)NCCNCC(O)c1ccccc1 (stereo unspecified) | 0.45 mg/kg | 0%

Structure (SMILES) | ED50 [1] | Inhibition [2]
O=C(Cc1ccccc1)NCCNCC(O)c1ccccc1 (stereo unspecified) | 0.38 mg/kg | 6%
COc1ccc(CC(=O)NCCNCC(O)c2ccccc2)cc1 (stereo unspecified) | 0.32 mg/kg | 24%
CC(C)C(=O)NCCNCC(O)c1ccc(Br)cc1 (stereo unspecified) | 1.6 mg/kg | 
C=CCOc1ccccc1OCC(=O)NCCNCC(O)c1ccccc1 (stereo unspecified) | 5.8 mg/kg | 
COc1ccc(CC(=O)NCCNCC(O)c2ccccc2)cc1OC (stereo unspecified) | 7 mg/kg | 
Cl.O=C(NCCNCC(O)c1ccccc1)C1CCCCC1 (stereo unspecified) | 0.16 mg/kg | 0%
O=[N+]([O-])c1ccccc1S(=O)(=O)NCCNCC(O)c1ccccc1 (stereo unspecified) | 2.5 mg/kg | 23%
CCCCNC(=O)NCCNCC(O)c1ccccc1 (stereo unspecified) | 0.5 mg/kg | 54%
N#Cc1ccc(OCC(=O)NCCNCC(O)c2ccccc2)cc1 (stereo unspecified) | 0.7 mg/kg | 
O=C(COc1ccccc1)NCCNCC(O)c1ccccc1 (stereo unspecified) | 1 mg/kg | 
O=C(CO)NCCNCC(O)c1ccccc1 (stereo unspecified) | 0.3 mg/kg | 
O=C(NCCNCC(O)c1ccccc1)Nc1ccccc1 (stereo unspecified) | 2.9 mg/kg | 0%
CC(C)CC(=O)NCCNCC(O)c1ccccc1 (stereo unspecified) | 0.72 mg/kg | 25%
O=C(Cc1ccccc1)NCCNCC(O)c1ccccc1Cl.O=C(O)/C=C/C(=O)O (stereo unspecified) | 0.6 mg/kg | 45%
CC(CNC(=O)Cc1ccccc1Cl)NCC(O)c1ccccc1 (stereo unspecified) | 0.03 mg/kg | 19%
Nc1ccc(CC(=O)NCCNCC(O)c2ccccc2)cc1 (stereo unspecified) | 2.5 mg/kg | 
C=CCNC(=O)NCCNCC(O)c1ccccc1 (stereo unspecified) | 0.26 mg/kg | 0%
O=C(NCCNCC(O)c1ccccc1)c1ccccc1 (stereo unspecified) | 10 mg/kg | 
O=C(COc1ccc(Cl)cc1)NCCNCC(O)c1ccccc1 (stereo unspecified) | 2.5 mg/kg | 36%
O=C(Cc1ccc(Cl)cc1)NCCNCC(O)c1ccccc1 (stereo unspecified) | 0.7 mg/kg | 3%
CCC(=O)NCCNCC(O)c1ccc(C)cc1 (stereo unspecified) | 0.5 mg/kg | 
O=S(=O)(Cc1ccccc1)NCCNCC(O)c1ccccc1 (stereo unspecified) | 2 mg/kg | 0%
CC(=O)Nc1ccc(CC(=O)NCCNCC(O)c2ccccc2)cc1 (stereo unspecified) | 1.2 mg/kg | 
CCC(=O)NCCNCC(O)c1ccccc1 (stereo unspecified) | 0.07 mg/kg | 46%
O=S(=O)(NCCNCC(O)c1ccccc1)c1ccccc1 (stereo unspecified) | 1 mg/kg | 27%
